Laboratory results published in patent US20210251229A1, “PLANT REGULATOR COMPOSITIONS” (Suntton Company Limited, priority 2020, published 2021).

Key:
Format in all cases: in vivo
[1] = test system: spring wheat (Scotia variety); experiment: Spring wheat (Scotia variety) field trial, Arnprior, Ontario: spray at late booting stage, yield; settings: EBR 0.05 ppm applied with Ethephon 0.18%
Experimental: A spring wheat (Scotia variety) trial is carried out in Arnprior, Ontario, Canada. Typically, Ethephon alone has been used to reduce lodging in wheat. However, it can lead to the loss of yield, especially when it is sprayed at late booting stage.

[2] = test system: table grape (Flame variety); experiment: Table grape (Flame variety) field trial, Coachella, Calif.: spray at fruit size 12 mm; settings: sprayed at fruit size 12 mm, GA3 2.00 ppm (EBR 0.05 ppm in the combination), 100 gal water per acre
Excerpt: A table grape (Flame variety) trial was set up in Coachella, Calif. Typically, GA3 alone has been used as a growth stimulator on table grape at sizing (berry size 10-14 mm), but it can cause uneven ripening and size of berry. [table]

Cherry (Bing variety) = Cherry (Bing variety) field trials, Lodi, Calif.: growth regulation effects, spray at straw color; settings: sprayed at straw color, GA3 4.0 ppm (EBR 0.1 ppm in the combination)
Experimental: Two Cherry (Bing variety) trials are conducted in Lodi, Calif. to compare growth regulation effects of Gibberellic acid (GA3) and Composition of GA3 and 24-epibrassinolide (EBR). Typically, GA3 alone is commonly used on cherry at straw color for the elongation of storage life, but the application of GA3 often causes uneven ripening. [table]

[3] = test system: table grape (Thomson green seedless variety); experiment: Table grape (Thomson green seedless variety) field trial, Mecca, Calif.: spray at fruit size 12 mm; settings: sprayed at fruit size 12 mm, GA3 4.0 ppm (EBR 0.1 ppm in the combination)
Experimental: A table grape (Thomson green seedless variety) trial is carried out in Mecca, Calif. Typically, GA3 alone has been used as growth stimulator on table grape at sizing (berry size 10-14 mm), but it can cause uneven ripening and size of berry. [table]

Row | SMILES | Effect of EBR on loss of yield caused by Ethephon [1] | Fruits picked [2] | Number of picks needed [2] | Ripening / uniformity of color and size (Cherry (Bing variety)) | Fruits picked (Cherry (Bing variety); 100 gal water per acre) | Number of picks needed (Cherry (Bing variety); 100 gal water per acre) | Ripening / uniformity of color and size [3] | Fruits picked ([3]; 100 gal water per acre)
1 | CC(C)[C@@H](C)[C@@H](O)[C@H](O)[C@@H](C)[C@H]1CC[C@H]2[C@@H]3COC(=O)[C@H]4C[C@H](O)[C@H](O)C[C@]4(C)[C@H]3CC[C@]12C [EBR, 24-epibrassinolide] | save/reverse the loss of yield | – | – | – | – | – | – | –
2 | C=C1C[C@]23C[C@@]1(O)CC[C@H]2[C@@]12C=C[C@H](O)[C@@](C)(C(=O)O1)[C@H]2[C@@H]3C(=O)O [GA3, Gibberellic acid] | – | Picked 90% of fruits | four | the uneven ripening | Picked 85% of fruits | four | the uneven ripening | Picked 85% of fruits
